From patent US20040063662A1, “Selenophene anti-tumor agents” (priority 1996, published 2004)
Where two headings read alike, the source gives them in different places.

Assays:
[1] = tested on: CCRF-CEM; experiment: NCI human tumor cell panel: CCRF-CEM (Leukemia); type: cell-based; conditions: for GI50: read-out: Log10 GI50 (converted); for IC (TGI): read-out: Log10 TGI (converted)
[2] = tested on: HL-60(TB); experiment: NCI human tumor cell panel: HL-60(TB) (Leukemia); type: cell-based; conditions: for GI50: read-out: Log10 GI50 (converted)
[3] = tested on: K-562; experiment: NCI human tumor cell panel: K-562 (Leukemia); type: cell-based; conditions: for GI50: K562, K-562, read-out: Log10 GI50 (converted); for IC (TGI): K562, K-562, read-out: Log10 TGI (converted)
[4] = tested on: SR; experiment: NCI human tumor cell panel: SR (Leukemia); type: cell-based; conditions: for GI50: read-out: Log10 GI50 (converted); for IC (TGI): read-out: Log10 TGI (converted)
[5] = tested on: HOP-62; experiment: NCI human tumor cell panel: HOP-62 (Non-Small Cell Lung Cancer); type: cell-based; conditions: for GI50: HOP-62, read-out: Log10 GI50 (converted); for IC (TGI): HOP-62, read-out: Log10 TGI (converted)
[6] = tested on: NCI-H226; experiment: NCI human tumor cell panel: NCI-H226 (Non-Small Cell Lung Cancer); type: cell-based; conditions: for GI50: NCI-H226, read-out: Log10 GI50 (converted); for IC (TGI): NCI-H226, read-out: Log10 TGI (converted)
[7] = tested on: HCC-2998; experiment: NCI human tumor cell panel: HCC-2998 (Colon Cancer); type: cell-based; conditions: for GI50: HCC-2998, read-out: Log10 GI50 (converted); for IC (TGI): HCC-2998, read-out: Log10 TGI (converted)
[8] = tested on: HCT-15; experiment: NCI human tumor cell panel: HCT-15 (Colon Cancer); type: cell-based; conditions: for GI50: HCT-15, read-out: Log10 GI50 (converted); for IC (TGI): HCT-15, read-out: Log10 TGI (converted)
[9] = tested on: KM12; experiment: NCI human tumor cell panel: KM12 (Colon Cancer); type: cell-based; conditions: for GI50: KM12, read-out: Log10 GI50 (converted); for IC (TGI): KM12, read-out: Log10 TGI (converted)
[10] = tested on: SF-268; experiment: NCI human tumor cell panel: SF-268 (CNS Cancer); type: cell-based; conditions: for GI50: SF-268, read-out: Log10 GI50 (converted); for IC (TGI): SF-268, read-out: Log10 TGI (converted)
[11] = tested on: SNB-19; experiment: NCI human tumor cell panel: SNB-19 (CNS Cancer); type: cell-based; conditions: for GI50: SNB-19, read-out: Log10 GI50 (converted); for IC (TGI): SNB-19, read-out: Log10 TGI (converted)
[12] = tested on: MALME-3M; experiment: NCI human tumor cell panel: MALME-3M (Melanoma); type: cell-based; conditions: Malme-3M; for GI50: read-out: Log10 GI50 (converted); for IC (TGI): read-out: Log10 TGI (converted)
[13] = tested on: UACC-257; experiment: NCI human tumor cell panel: UACC-257 (Melanoma); type: cell-based; conditions: for GI50: UACC-257, read-out: Log10 GI50 (converted); for IC (TGI): UACC-257, read-out: Log10 TGI (converted)
[14] = tested on: UACC-62; experiment: NCI human tumor cell panel: UACC-62 (Melanoma); type: cell-based; conditions: for GI50: UACC-62, read-out: Log10 GI50 (converted); for IC (TGI): UACC-62, read-out: Log10 TGI (converted)
[15] = tested on: OVCAR-4; experiment: NCI human tumor cell panel: OVCAR-4 (Ovarian Cancer); type: cell-based; conditions: for GI50: OVCAR-4, read-out: Log10 GI50 (converted)
[16] = tested on: OVCAR-5; experiment: NCI human tumor cell panel: OVCAR-5 (Ovarian Cancer); type: cell-based; conditions: for GI50: OVCAR-5, read-out: Log10 GI50 (converted); for IC (TGI): OVCAR-5, read-out: Log10 TGI (converted)
[17] = tested on: CAKI-1; experiment: NCI human tumor cell panel: CAKI-1 (Renal Cancer); type: cell-based; conditions: for GI50: CAKI-1, read-out: Log10 GI50 (converted); for IC (TGI): CAKI-1, read-out: Log10 TGI (converted)
[18] = tested on: RXF-393; experiment: NCI human tumor cell panel: RXF-393 (Renal Cancer); type: cell-based; conditions: for GI50: RXF-393, read-out: Log10 GI50 (converted); for IC (TGI): RXF-393, read-out: Log10 TGI (converted)
[19] = tested on: SN12C; experiment: NCI human tumor cell panel: SN12C (Renal Cancer); type: cell-based; conditions: for GI50: read-out: Log10 GI50 (converted); for IC (TGI): read-out: Log10 TGI (converted)
[20] = tested on: PC-3; experiment: NCI human tumor cell panel: PC-3 (Prostate Cancer); type: cell-based; conditions: for GI50: PC-3, read-out: Log10 GI50 (converted); for IC (TGI): PC-3, read-out: Log10 TGI (converted)
[21] = tested on: DU-145; experiment: NCI human tumor cell panel: DU-145 (Prostate Cancer); type: cell-based; conditions: for GI50: DU-145, read-out: Log10 GI50 (converted); for IC (TGI): DU-145, read-out: Log10 TGI (converted)
[22] = tested on: MCF7; experiment: NCI human tumor cell panel: MCF7 (Breast Cancer); type: cell-based; conditions: for GI50: MCF7, read-out: Log10 GI50 (converted); for IC (TGI): MCF7, read-out: Log10 TGI (converted)
[23] = tested on: MDA-MB-231/ATCC; experiment: NCI human tumor cell panel: MDA-MB-231/ATCC (Breast Cancer); type: cell-based; conditions: for GI50: read-out: Log10 GI50 (converted)
[24] = tested on: HS 578T; experiment: NCI human tumor cell panel: HS 578T (Breast Cancer); type: cell-based; conditions: for GI50: read-out: Log10 GI50 (converted); for IC (TGI): read-out: Log10 TGI (converted)
[25] = tested on: HOP-92; experiment: NCI human tumor cell panel: HOP-92 (Non-Small Cell Lung Cancer); conditions: for GI50: HOP-92, read-out: Log10 GI50 (converted); for IC (TGI): HOP-92, read-out: Log10 TGI
[26] = tested on: panel of sixty different human tumor cell lines; experiment: NCI human tumor cell panel: whole panel (mean graph summary); conditions: for CC50: Homo sapiens; for Log10 TGI, Delta / Log10 TGI, Range: whole panel
[27] = tested on: COLO 205; experiment: NCI human tumor cell panel: COLO 205 (Colon Cancer); type: cell-based
[28] = Homo sapiens, MDA-MB-231, MDA-MB-231/ATCC
[29] = read-out: Log10 LC50, MG_MID, mean over the panel (converted)
[30] = read-out: Log10 LC50, row head (cell line) not given (converted)

OCc1ccc(-c2ccc(-c3ccc(CO)[se]3)s2)[se]1 [compound 676632]
GI50 [1]: 87.1 µM
IC (TGI) [1]: > 100 µM
GI50 [2]: > 100 µM
IC (TGI) ([2]; read-out: Log10 TGI): > 100 µM
GI50 [3]: 0.0479 µM
IC (TGI) [3]: > 100 µM
GI50 [4]: > 100 µM
IC (TGI) [4]: > 100 µM
GI50 [5]: 0.0759 µM
IC (TGI) [5]: > 100 µM
GI50 [6]: 0.0195 µM
IC (TGI) [6]: 0.0537 µM
GI50 [7]: 0.178 µM
IC (TGI) [7]: 0.55 µM
GI50 [8]: 0.0447 µM
IC (TGI) [8]: > 100 µM
GI50 [9]: 0.537 µM
IC (TGI) [9]: > 100 µM
GI50 [10]: > 100 µM
IC (TGI) [10]: > 100 µM
GI50 [11]: 42.7 µM
IC (TGI) [11]: > 100 µM
GI50 [12]: > 100 µM
IC (TGI) [12]: > 100 µM
GI50 [13]: 0.0214 µM
IC (TGI) [13]: > 100 µM
GI50 [14]: 0.0224 µM
IC (TGI) [14]: 0.0562 µM
GI50 [15]: 0.135 µM
GI50 [16]: 0.0132 µM
IC (TGI) [16]: 0.0776 µM
GI50 [17]: 0.0126 µM
IC (TGI) [17]: 0.123 µM
GI50 [18]: > 100 µM
IC (TGI) [18]: > 100 µM
GI50 [19]: > 100 µM
IC (TGI) [19]: > 100 µM
GI50 [20]: > 100 µM
IC (TGI) [20]: > 100 µM
GI50 [21]: 95.5 µM
IC (TGI) [21]: > 100 µM
GI50 [22]: 0.0123 µM
IC (TGI) [22]: > 100 µM
GI50 [23, 28]: > 100 µM
IC (TGI) ([23]; Homo sapiens, MDA-MB-231, MDA-MB-231/ATCC, read-out: Log10 TGI (converted)): > 100 µM
GI50 [24]: > 100 µM
IC (TGI) [24]: > 100 µM
GI50 [25]: > 100 µM
CC50 ([25]; HOP-92, read-out: Log10 LC50 (converted)): > 100 µM
IC (TGI) [25]: > 100 µM
CC50 [26, 29]: 69.2 µM
CC50 [26, 30]: > 100 µM
Log10 TGI ([26]; listed as head (cell line) not given): >−4.00
Log10 GI50, MG_MID ([26]; mean over the panel): −5.16
Log10 TGI, MG_MID ([26]; mean over the panel): −4.48
Log10 TGI, Delta [26]: 2.89
Log10 TGI, Range [26]: 3.37

OCc1ccc(-c2ccc(-c3ccc(CO)[se]3)[se]2)[se]1 [compound 675247]
GI50 [1]: 3.39 µM
IC (TGI) [1]: 10 µM
GI50 [2]: 4.07 µM
GI50 [3]: 1.32 µM
IC (TGI) [3]: 5.01 µM
GI50 [4]: 3.72 µM
IC (TGI) [4]: > 100 µM
GI50 [5]: 5.5 µM
IC (TGI) [5]: 21.4 µM
GI50 [6]: 1.7 µM
IC (TGI) [6]: 3.89 µM
GI50 ([27]; COLO 205, read-out: Log10 GI50 (converted)): 1.95 µM
IC (TGI) ([27]; COLO 205, read-out: Log10 TGI (converted)): 5.13 µM
GI50 [7]: 0.851 µM
IC (TGI) [7]: 3.24 µM
GI50 [8]: 3.8 µM
IC (TGI) [8]: 12.3 µM
GI50 [9]: 4.47 µM
IC (TGI) [9]: 15.1 µM
GI50 [10]: 1.74 µM
IC (TGI) [10]: 4.37 µM
GI50 [11]: 5.5 µM
IC (TGI) [11]: 25.1 µM
GI50 [12]: 2.88 µM
IC (TGI) [12]: 10.7 µM
GI50 [13]: 0.437 µM
IC (TGI) [13]: 2 µM
GI50 [14]: 0.155 µM
IC (TGI) [14]: 2.45 µM
GI50 [15]: 1.7 µM
IC (TGI) ([15]; OVCAR-4, read-out: Log10 TGI (converted)): 6.92 µM
GI50 [16]: 1.32 µM
IC (TGI) [16]: 12.9 µM
GI50 [17]: 0.0741 µM
IC (TGI) [17]: 0.468 µM
GI50 [18]: 1.58 µM
IC (TGI) [18]: 3.72 µM
GI50 [19]: 2.75 µM
IC (TGI) [19]: 11.7 µM
GI50 [20]: 3.55 µM
IC (TGI) [20]: 12.3 µM
GI50 [21]: 6.92 µM
IC (TGI) [21]: 19.5 µM
GI50 [22]: 0.158 µM
IC (TGI) [22]: 11.2 µM
GI50 [23, 28]: 5.01 µM
Log10 GI50 ([23]; MDA-MB-231/ATCC): −5.27
GI50 [24]: 3.24 µM
IC (TGI) [24]: 11.2 µM
GI50 [25]: 2.4 µM
IC (TGI) [25]: 7.59 µM
CC50 [26, 29]: 45.7 µM
CC50 [26, 30]: > 100 µM
Log10 GI50, MG_MID ([26]; mean over the panel): −5.65
Log10 TGI, Delta [26]: 1.36
Log10 TGI, Range [26]: 2.33
